Experiments:
Type in all cases: cell-based
MIA PaCa-2 cells = test: Seahorse XF Real-Time ATP Rate Assay (FIG. 8A); details: 6 h romidepsin then 12 h washout with or without 2 nM DMPatA
Procedure: FIG. 8A compares quantification of ATP production rates. Seahorse XF Real-Time ATP Rate Assay was performed under control conditions or after treatment with the combination and single agents. Treatment was for a total of 18 h (i.e., 6-hour romidepsin followed by 12-hour washout with 2 nM DMPatA (combo) or without (Romi alone)). FIG. 8A left panel—ATP production rate from mitochondrial respiration (Mito-ATP); FIG. 8A right panel—ATP production rate from glycolysis (Glyco-ATP). At least two biological replicate experiments with n=3 technical replicates were performed. Statistical significance was determined by one-way ANOVA using Tukey multiple comparison's test in the Prism software. *p value<0.01.
Because reprograming/augmentation of cellular metabolism by c-MYC is known to support oncogenesis, the Seahorse XF analyzer was used to assess the impact of the treatments on c-MYC-driven metabolism including ATP production, glycolysis, and mitochondrial oxidative phosphorylation (OXPHOS). Extracellular acidification rates, also known as proton efflux rate (PER), were measured for glycolysis and mitochondrial oxygen consumption rates (OCR) for OXPHOS. […]
Oxygen consumption rates (OCR) and extracellular acidification rates (ECAR) were measured using the XF96 Extracellular Flux analyzer (Seahorse Bioscience). […]

KLM and MIA PaCa-2 cells = test: Nascent RNA synthesis by EU labeling (FIG. 9B); details: total 18 h, 5-EU incorporation
Procedure: FIG. 9B left panel compares EU-labeled nascent RNA and (Hoechst counterstain) in KLM cells treated with combination and single agents. Scale bar: 1 μm. FIG. 9B right panels present quantification of fluorescence intensities of nascent RNA synthesis in both KLM and MIA PaCa-2 cell lines. Statistical significance was determined by one-way ANOVA using Tukey multiple comparison's test, ****p value<0.0001, **p value<0.0002, **p value<0.002.
This apparent hypertranscription observed with the combination, was confirmed by the increase in nascent RNA output above the level of normal cells, following treatment for a total of 18 hours (i.e., 6-hour romidepsin followed by 12-hour washout with or without 2 nM DMPatA), quantified using incorporation of the modified RNA precursor 5-EU. […] Because HDAC inhibitors cause histone hyperacetylation and having observed the increase in gene expression following treatment with the combination, the impact of the combination on histone acetylation was assessed.
To detect changes in the global RNA transcription we used the Click-iT RNA Alexa Fluor 594 Imaging Kit (Invitrogen, #C10330). Briefly, cells were cultured in complete media and pulsed for 60 min with alkyne-modified nucleoside, 5-ethynyl uridine (EU) at a final concentration of 1 mM. […]

p-RPA = test: Immunoblot of phospho-RPA2 (FIG. 11A); details: total 24 h (romidepsin 6 h + 18 h with/without 2 nM DMPatA)
Procedure: FIG. 11A compares immunoblots of p-RPA and p-CHK1 protein levels from whole cell extracts following treatment with the combination and romidepsin for a total of 24 h (i.e., romidepsin treatment was for 6 h followed by 18-hour incubation with 2 nM DMPatA (combo) or without (Romi alone)).
Having observed R-loop accumulation following treatment with the combination, it was hypothesized that hypertranscription, persistent hyperacetylation, and R-loop accumulation could increase the incidence of transcription replication conflicts, genome instability, and DNA damage and contribute to cell death. […]
Western blotting was carried out as previously described (Luchenko V L, Litman T, Chakraborty A R, et al. 65. Membranes were probed with primary antibodies: Phospho-Histone H2A.X (Ser139) (1:1000, Millipore Sigma #05-636), GAPDH (1:10000, Abcam #ab8245), c-Myc (1:1000, Abcam #ab32072), β-Actin (1:1000, Cell Signaling Technology (CST), #8457), Phospho-RPA32/RPA2 (Ser33) (1:1000, Cell Signaling Technology #10148), Phospho-Chk1 (Ser345) (1:1000, CST #2341), and secondary antibodies IRDye® 680RD Goat anti-Mouse and IRDye® 800CW Goat anti-Rabbit (both from LI-COR Biosciences). Signal quantification was performed using the Odyssey CLx imaging system (LI-COR Biosciences), capturing various exposures within the linear range with ImageStudio software V3.1 (LI-COR Biosciences).

C/C=C1\NC(=O)[C@H]2CSSCC/C=C/[C@H](CC(=O)N[C@H](C(C)C)C(=O)N2)OC(=O)[C@H](C(C)C)NC1=O [romidepsin]
glycolytic ATP production (Glyco-ATP) (MIA PaCa-2 cells): reduced | mitochondrial ATP production (Mito-ATP) (MIA PaCa-2 cells): reduced | nascent RNA (mRNA) synthesis (KLM and MIA PaCa-2 cells): increase in RNA synthesis | phospho-RPA2 (p-RPA): Accumulation

Reference: US20260335398A1, “METHODS FOR TREATING PANCREATIC CANCER WITH A COMBINATION OF DES-METHYL PATEAMINE A AND A CLASS I HDAC INHIBITOR” (Baylor University, priority 2023, published 2026)
